Test results from patent publication US11059773B2, “Type-B fenolamine crystal form, preparation method, composition and use thereof” (INSTITUTE OF MATARIA MEDICA, CHINESE ACADEMY OF MEDICAL …, priority 2017, dated 2021).
“Also recorded” adds a separate entry of the source.

Key:
[1] = Stability of type-B fenolamine crystal form solid (influencing factors: high temperature, high humidity, illumination); assay type: physicochemical; conditions: starting ethanol content 2.58%
Description: Type-B fenolamine crystal form samples (having a crystallized ethanol content of 2.58%) were placed in open clean watch glasses, and kept under conditions of a high temperature of 60° C., a high temperature of 40° C., and 25° C., a relative humidity of 90%±5%, and illumination at 4500 lx±500 lx for 10 days, and samples were taken on Days 0, 5, and 10. Powder X-ray diffraction (with a resultant pattern consistent to that in FIG. 1) and gas chromatography means were used for analysis.

[2] = Dissolution of type-B fenolamine crystal form in six solvent systems; assay type: physicochemical
Description: The solubility was evaluated by using a type-B fenolamine crystal form sample (fenolamine:ethanol=1:0.2) having a crystallized ethanol content of 2.0%.
The solvent systems were selected by: (1) referring to solvent systems used in the dissolution determination method in the Appendix of the Pharmacopoeia; (2) referring to the digestive solution pH in various organs of an organism; (3) improving the solubility of water-insoluble drugs. Based the above three references, solvent systems with six pH values were set up: a 0.1 N hydrochloric acid solution with pH 1.2; an acetate buffer solution with pH 4.5; a phosphate buffer solution with pH 6.5; an water solution with pH 6.7; a 0.2% SDS solution with pH 7.0; a 0.5% SDS solution with pH 7.3.
Measurement was carried out according to the solubility determination method (“Guidelines for Dissolution Test Technique of General Oral Solid Preparations (Draft)”, October 2012, the Drug Review Center). With the percentage of the samples dissolved by mass calculated from the absorbance data, solubility curves were respectively drawn with time as abscissa and dissolved contents as ordinate and shown in FIG. 10.

COc1ccc(OC)c(/C(=C\c2ccc(O)c(OC)c2)C(=O)NCCc2ccc(O)cc2)c1 [type-B fenolamine crystal form, trans-2-(2,5-dimethoxyphenyl)-3-(4-hydroxy-3-methoxyphenyl)-N-(4-hydroxyphenylethyl) acrylamide]
Stability of the crystal form (powder X-ray diffraction and gas chromatography) ([1]; 60° C., 40° C., 25° C. with RH 90%±5%, 4500 lx±500 lx, 10 days): stable under conditions of high temperature, high humidity and light illumination
Crystallized ethanol content after storage ([1]; 10 days at high temperature): about 2.1%
Dissolution (percentage of sample dissolved by mass) ([2]; 0.1N hydrochloric acid pH 1.2, 5 min): 0.00%
Dissolution (percentage of sample dissolved by mass) ([2]; 0.1N hydrochloric acid pH 1.2, 15 min): 0.00%
Dissolution (percentage of sample dissolved by mass) ([2]; 0.1N hydrochloric acid pH 1.2, 30 min): 2.35%
Dissolution (percentage of sample dissolved by mass) ([2]; 0.1N hydrochloric acid pH 1.2, 60 min): 5.75%
Dissolution (percentage of sample dissolved by mass) ([2]; 0.1N hydrochloric acid pH 1.2, 120 min): 11.42%
Dissolution (percentage of sample dissolved by mass) ([2]; 0.1N hydrochloric acid pH 1.2, 180 min): 14.07%
Dissolution (percentage of sample dissolved by mass) ([2]; 0.1N hydrochloric acid pH 1.2, 240 min): 18.54%
Dissolution (percentage of sample dissolved by mass) ([2]; 0.1N hydrochloric acid pH 1.2, 300 min): 20.04%
Dissolution (percentage of sample dissolved by mass) ([2]; 0.1N hydrochloric acid pH 1.2, 360 min): 23.69%
Dissolution (percentage of sample dissolved by mass) ([2]; 0.1N hydrochloric acid pH 1.2, 420 min): 25.07%
Dissolution (percentage of sample dissolved by mass) ([2]; 0.2% SDS pH 7.0, 5 min): 21.57%
Dissolution (percentage of sample dissolved by mass) ([2]; 0.2% SDS pH 7.0, 15 min): 32.50%
Dissolution (percentage of sample dissolved by mass) ([2]; 0.2% SDS pH 7.0, 30 min): 42.43%
Dissolution (percentage of sample dissolved by mass) ([2]; 0.2% SDS pH 7.0, 60 min): 59.66%
Dissolution (percentage of sample dissolved by mass) ([2]; 0.2% SDS pH 7.0, 120 min): 91.98%
Dissolution (percentage of sample dissolved by mass) ([2]; 0.2% SDS pH 7.0, 180 min): 92.35%
Dissolution (percentage of sample dissolved by mass) ([2]; 0.2% SDS pH 7.0, 240 min): 95.75%
Dissolution (percentage of sample dissolved by mass) ([2]; 0.2% SDS pH 7.0, 300 min): 95.82%
Dissolution (percentage of sample dissolved by mass) ([2]; 0.2% SDS pH 7.0, 360 min): 95.90%
Dissolution (percentage of sample dissolved by mass) ([2]; 0.2% SDS pH 7.0, 420 min): 95.93%
Dissolution (percentage of sample dissolved by mass) ([2]; 0.5% SDS pH 7.3, 5 min): 35.04%
Dissolution (percentage of sample dissolved by mass) ([2]; 0.5% SDS pH 7.3, 15 min): 55.30%
Dissolution (percentage of sample dissolved by mass) ([2]; 0.5% SDS pH 7.3, 30 min): 73.32%
Dissolution (percentage of sample dissolved by mass) ([2]; 0.5% SDS pH 7.3, 60 min): 86.90%
Dissolution (percentage of sample dissolved by mass) ([2]; 0.5% SDS pH 7.3, 120 min): 97.35%
Dissolution (percentage of sample dissolved by mass) ([2]; 0.5% SDS pH 7.3, 180 min): 97.69%
Dissolution (percentage of sample dissolved by mass) ([2]; 0.5% SDS pH 7.3, 240 min): 98.40%
Dissolution (percentage of sample dissolved by mass) ([2]; 0.5% SDS pH 7.3, 300 min): 98.47%
Dissolution (percentage of sample dissolved by mass) ([2]; 0.5% SDS pH 7.3, 360 min): 98.51%
Dissolution (percentage of sample dissolved by mass) ([2]; 0.5% SDS pH 7.3, 420 min): 100.00%
Dissolution (percentage of sample dissolved by mass) ([2]; Acetate buffer pH 4.5, 5 min): 0.00%
Dissolution (percentage of sample dissolved by mass) ([2]; Acetate buffer pH 4.5, 15 min): 0.00%
Dissolution (percentage of sample dissolved by mass) ([2]; Acetate buffer pH 4.5, 30 min): 0.49%
Dissolution (percentage of sample dissolved by mass) ([2]; Acetate buffer pH 4.5, 60 min): 2.57%
Dissolution (percentage of sample dissolved by mass) ([2]; Acetate buffer pH 4.5, 120 min): 7.54%
Dissolution (percentage of sample dissolved by mass) ([2]; Acetate buffer pH 4.5, 180 min): 11.34%
Dissolution (percentage of sample dissolved by mass) ([2]; Acetate buffer pH 4.5, 240 min): 15.82%
Dissolution (percentage of sample dissolved by mass) ([2]; Acetate buffer pH 4.5, 300 min): 19.51%
Dissolution (percentage of sample dissolved by mass) ([2]; Acetate buffer pH 4.5, 360 min): 20.15%
Dissolution (percentage of sample dissolved by mass) ([2]; Acetate buffer pH 4.5, 420 min): 20.71%
Dissolution (percentage of sample dissolved by mass) ([2]; Phosphate buffer pH 6.5, 5 min): 49.51%
Dissolution (percentage of sample dissolved by mass) ([2]; Phosphate buffer pH 6.5, 15 min): 49.81%
Dissolution (percentage of sample dissolved by mass) ([2]; Phosphate buffer pH 6.5, 30 min): 49.89%
Dissolution (percentage of sample dissolved by mass) ([2]; Phosphate buffer pH 6.5, 60 min): 49.96%
Dissolution (percentage of sample dissolved by mass) ([2]; Phosphate buffer pH 6.5, 120 min): 51.08%
Dissolution (percentage of sample dissolved by mass) ([2]; Phosphate buffer pH 6.5, 180 min): 51.72%
Dissolution (percentage of sample dissolved by mass) ([2]; Phosphate buffer pH 6.5, 240 min): 51.87%
Dissolution (percentage of sample dissolved by mass) ([2]; Phosphate buffer pH 6.5, 300 min): 53.32%
Dissolution (percentage of sample dissolved by mass) ([2]; Phosphate buffer pH 6.5, 360 min): 53.40%
Dissolution (percentage of sample dissolved by mass) ([2]; Phosphate buffer pH 6.5, 420 min): 53.47%
Dissolution (percentage of sample dissolved by mass) ([2]; Water pH 6.7, 5 min): 0.00%
Dissolution (percentage of sample dissolved by mass) ([2]; Water pH 6.7, 15 min): 0.34%
Dissolution (percentage of sample dissolved by mass) ([2]; Water pH 6.7, 30 min): 2.01%
Dissolution (percentage of sample dissolved by mass) ([2]; Water pH 6.7, 60 min): 5.26%
Dissolution (percentage of sample dissolved by mass) ([2]; Water pH 6.7, 120 min): 11.42%
Dissolution (percentage of sample dissolved by mass) ([2]; Water pH 6.7, 180 min): 20.22%
Dissolution (percentage of sample dissolved by mass) ([2]; Water pH 6.7, 240 min): 21.94%
Dissolution (percentage of sample dissolved by mass) ([2]; Water pH 6.7, 300 min): 26.04%
Dissolution (percentage of sample dissolved by mass) ([2]; Water pH 6.7, 360 min): 28.96%
Dissolution (percentage of sample dissolved by mass) ([2]; Water pH 6.7, 420 min): 32.13%
Solubility in six solvent systems imitating different pH environments in human body (in words) ([2]; compared with type-F crystal form): good solubility; also recorded: superior to the type-F crystal form
